Key:
[1] = Urine odor panel ranking, dye powders in urine, 1.6 millimolar (Example 6); design: species or system human; conditions: 1.6 millimolar dye in urine, 24 hours, 37° C.
Experimental: (§1) Qualitative odor reduction was also assessed against common odors, such as garlic and urine. Specifically, panelists assessed odorant-containing jars by carefully unscrewing, and then raising the lid of each jar in a controlled manner, such that the odor was not diluted by the ambient air. The jars were wrapped and coded to ensure that the sample identity was unknown.
The effectiveness of various dyes in reducing urine odor was compared. The dyes chosen for this example were powders of Acid Blue 25, Acid Blue 45, Acid Blue 129, FD&C Blue No. 1 (a triarylmethane dye), Acid Green 27, Acid Green 41, and Mordant Violet 5 (Alizarin Violet 3R) (commercially available from Sigma-Aldrich Chemical Co., Inc. of St. Louis, Mo.), as well as D&C Green No. 5 (commercially available from Noveon Hilton Davis, Inc. of Cincinnati, Ohio). Human female urine was initially collected and pooled by a nurse on staff at Kimberly-Clark Corporation. […] Powders of the aforementioned dyes were weighed and placed into the mason jars containing 50 milliliters of urine so that the final concentration of the dye powder was 1.6 millimolar (equivalent to 0.1 wt. %). […] A score of “10” was assigned to the most malodorous jar and a score of “1” was assigned to the least malodorous jar.

[2] = Urine odor and secondary odor panel ranking, dye powders in urine, 8 millimolar (Example 7); design: species or system human; conditions: for Secondary Odor Ranking: scale 1 to 5, 5 extremely unpleasant, individual panelists' scores; for Average Urine Odor Ranking (with statistical corrections), Avg. Score: ignoring statistical anomalies
Experimental: as §1
The effectiveness of various dyes in reducing urine odor was compared. […] Human female urine was initially collected and pooled by a nurse on staff at Kimberly-Clark Corporation. The pooled urine was added to mason jars in 50-milliliter aliquots using an automated pipette aid. Powders of the aforementioned dyes (commercially available from Sigma-Aldrich Chemical Co., Inc. of St. Louis, Mo. and Noveon Hilton Davis, Inc. of Cincinnati, Ohio) were weighed and placed into the mason jars containing 50 milliliters of urine so that the final concentration of the dye powder was 8 millimolar (equivalent to 0.5 wt. %). The mason jars were placed in an incubator overnight at 37° C.
To aid in the assessment of the dyes, the mason jars were divided into two groups for a morning assessment, and the best of both groups were compared in an afternoon assessment (after a total of 24 hours). In addition to ranking the jars from least to most malodorous (on a scale from 1 to 7, with 7 being the most malodors), panelists were also asked to judge whether there were secondary (non-urine) odors present and, if so, the extent that the secondary odors were unpleasant (on a scale from 1 to 5, with 5 being extremely unpleasant).
In this assessment, panelists were given instructions to rank the least malodorous jar as “1” and the most malodorous jar as “10,” remaining free to rank the other jars between 2-9.

[3] = Redox potential (redox potentiometry); format: physicochemical; conditions: compared with hydrogen (set at 0)
Text: The ability of quinone compounds to accept electrons from another substance (i.e., be reduced) may be quantified using a technique known as redox potentiometry. Redox potentiometry is a technique that measures (in volts) the affinity of a substance for electrons—its electronegativity—compared with hydrogen (which is set at 0). Substances more strongly electronegative than (i.e., capable of oxidizing) hydrogen have positive redox potentials. Substances less electronegative than (i.e., capable of reducing) hydrogen have negative redox potentials. The greater the difference between the redox potentials of two substances (ΔE), the greater the vigor with which electrons will flow spontaneously from the less positive to the more positive (more electronegative) substance. As is well known in the art, redox potential may be measured using any of a variety of commercially available meters, such as an Oxidation Reduction Potential (ORP) tester commercially available from Hanna Instruments, Inc. of Woonsocket, R.I. The redox potential of the quinone compounds may, for instance, be less than about −50 millivolts (mV), in some embodiments less than about −150 mV, in some embodiments less than about −300 mV, and in some embodiments, less than about −500 mV. Although not always the case, the redox potential may vary based on the number and location of functional groups, such as sulfonic acid, on the quinone structure. For example, 2-sulfonic acid anthraquinone has a redox potential of −380 mV; 2,6-disulfonic acid anthraquinone has a redox potential of −325 mV; and 2,7-disulfonic acid anthraquinone has a redox potential of −313 mV. Likewise, 2-sulfonic acid naphthaquinone has a redox potential of −60 mV. The use of other functional groups may also have an affect on the ultimate redox potential of the compound. For example, Acid Blue 25, which also contains amino- and aramid functional groups, has a redox potential of −605 mV.

[4] = Urine odor panel ranking, dye powders in urine, 8 millimolar (Example 5); design: species or system human; conditions: 8 millimolar dye in urine
Experimental: Qualitative odor reduction was also assessed against common odors, such as garlic and urine. Specifically, panelists assessed odorant-containing jars by carefully unscrewing, and then raising the lid of each jar in a controlled manner, such that the odor was not diluted by the ambient air. The jars were wrapped and coded to ensure that the sample identity was unknown. The effectiveness of various quinone dyes in reducing urine odor was compared. Human female urine was initially collected and pooled by a nurse on staff at Kimberly-Clark Corporation.

[5] = Urine odor panel ranking, dye-coated Poise pads without SN-AK (Example 8); design: species or system human
Experimental: as §1
Specifically, Acid Green 25, Acid Green 41, Acid Blue 129, and D&C Green No. 5 were tested. Powders of the aforementioned dyes (commercially available from Sigma-Aldrich Chemical Co., Inc. of St. Louis, Mo. and Noveon Hilton Davis, Inc. of Cincinnati, Ohio) were dissolved in water so that the concentration of the dye was 8 millimolar (equivalent to 0.5 wt. %). Samples of tissue wrap were created by cutting 9″×6″ sheets from a roll of tissue (1 ply white cellulose wrap sheet having a basis weight of 16.6 grams per square meter) were weighed, oven-dried overnight at 90° C., and weighed again the next day to calculate the amount of residual water in each wrap. The wraps were then dipped into a respective dye solution and hung to dry overnight, after which they were weighed again. The treated wraps were then rinsed in deionized water to remove any unbound dye and hung again to dry overnight. After weighing the treated wraps, they were once again oven-dried overnight at 90° C. and weighed to determine the dry add-on percentages ([…]). The add-on percentage for each sample was approximately 1.6 wt. %.
Two different sets of Poise® pads (commercially available from Kimberly-Clark Corp.) were tested. The first set of dye-coated tissue wraps (without SN-AK) was inserted around the pledgette area of the Poise® pads. The Poise® pads were cut open and the tissue wrap surrounding the pledgette carefully removed and replaced with dye-coated tissue wrap. The second set of dye-coated tissue wraps (without SN-AK) used dye coatings on the top of the pad (rather than inside). These pads were constructed by spreading the solution over the top of each pad. To prevent the superabsorbent area of the pad from soaking up the solution, the pads were cut open prior to coating and a layer of plastic wrap was placed between the top layer of the pad and the superabsorbent core. A pad that was cut open, but coated only with water on top, was used as a control. All pads were dried at room temperature overnight before placing them in mason jars for testing. For control purposes, a Poise® pad was also tested that was cut open, but retained its original tissue wrap. In addition, Serenity® Night & Day™ incontinence pads, which are commercially available from SCA Incontinence Care of Eddystone, Pa. and said to employ OdaSorb Plus™ to reduce odor, were also used for comparison.
Fresh human female urine was then pooled, and 50-milliliter aliquots were applied to the pads using a pipette. The mason jars were placed in a 37° C. incubator overnight for assessment the next day. […] Panelists were again asked to rank any secondary odors for unpleasantness on a scale of 1-5.

[6] = First Grouping, morning assessment, 8 millimolar, 7 most malodorous
[7] = First Grouping, scale 1 to 7, 7 most malodorous
[8] = After 24 Hours, top performers of both groupings, 1 least, 10 most malodorous
[9] = after 24 hours, top performers, 1 least, 10 most malodorous
[10] = After 6 Hours, 10 most, 1 least malodorous
[11] = After 24 Hours, 10 most, 1 least malodorous
[12] = Second Grouping, morning assessment, 8 millimolar, higher = more malodorous
[13] = 1st set (tissue-wrap coating), After 30 Hours

With Cc1ccc(Nc2cccc3c2C(=O)c2cccc(Nc4ccc(C)cc4S(=O)(=O)[O-])c2C3=O)c(S(=O)(=O)[O-])c1.[Na+].[Na+] the “urine odor reduction (panel)” value [1] was “did not perform as well in reducing odor as D&C Green No. 5”, the “Urine Odor Ranking (number of panelists): ranking 4” value (“Urine Odor Ranking … ranking 4” below) [2, 6] was 1 number of panelists and the “Urine Odor Ranking (number of panelists): ranking 6” value [2, 6] was 3 number of panelists. For the same compound, the “Urine Odor Ranking (number of panelists): ranking 7” value [2, 6] was 1 number of panelists, the “Secondary Odor Ranking” value ([2]; First Grouping) was 1 and the “Average Urine Odor Ranking, Avg. Score” value [2, 7] was 5.8.
In the case of O=C1c2ccc(S(=O)(=O)O)cc2C(=O)c2ccc(S(=O)(=O)O)cc21 [2,6-disulfonic acid anthraquinone], the redox potential [3] is reported as −325 mV.
O=C1c2ccc(S(=O)(=O)O)cc2C(=O)c2cc(S(=O)(=O)O)ccc21 [2,7-disulfonic acid anthraquinone] gave a redox potential [3] of −313 mV.
Work on O=C1c2ccccc2C(=O)c2cc(S(=O)(=O)O)ccc21 [2-sulfonic acid anthraquinone] yielded a redox potential [3] of −380 mV.
With O=C1C=C(S(=O)(=O)O)C(=O)c2ccccc21 [2-sulfonic acid naphthaquinone] the redox potential [3] was −60 mV.
For Nc1c(S(=O)(=O)[O-])cc(Nc2ccccc2)c2c1C(=O)c1ccccc1C2=O.[Na+] [Acid Blue 25], the redox potential [3] was −605 mV, the “Urine Odor Ranking … ranking 4” value [2, 8] was 1 number of panelists and the “Urine Odor Ranking (number of panelists): ranking 7” value [2, 8] was 1 number of panelists. The “Urine Odor Ranking (number of panelists): ranking 9” value [2, 8] was 2 number of panelists, the “Urine Odor Ranking (number of panelists): ranking 10” value [2, 8] was 1 number of panelists and the “Secondary Odor Ranking” value ([2]; After 24 Hours) was 4. For the same compound, the “Urine Odor Ranking (number of panelists): ranking 1” value [2, 6] was 1 number of panelists, the “Urine Odor Ranking (number of panelists): ranking 2” value [2, 6] was 1 number of panelists and the “Urine Odor Ranking (number of panelists): ranking 3” value (“Urine Odor Ranking … ranking 3” below) [2, 6] was 1 number of panelists. For the same compound, the “Urine Odor Ranking … ranking 4” value [2, 6] was 1 number of panelists, the “Urine Odor Ranking (number of panelists): ranking 5” value [2, 6] was 1 number of panelists and the “Secondary Odor Ranking” value ([2]; First Grouping) was 2. The “Average Urine Odor Ranking, Avg. Score” value [2, 7] was 3.0, the “Average Urine Odor Ranking, Avg. Score” value [2, 9] was 6.8 and the “Average Urine Odor Ranking (with statistical corrections), Avg. Score” value ([2]; after 24 hours, top performers) was 8.8. For the same compound, the “urine odor reduction (panel)” value ([2]; first grouping) was “functioned effectively to reduce odor”.
In the case of Cc1cc(C)c(Nc2cc(S(=O)(=O)[O-])c(N)c3c2C(=O)c2ccccc2C3=O)c(C)c1.[Na+] [Acid Blue 129], the “urine malodor reduction (panel)” value ([4]; 6 and 24 hours) is reported as “functioned effectively in reducing urine malodor”, the “Avg. Ranking (odor)” value [4, 10] is reported as 1.6 and the “Ranking (number of panelists): ranking 1” value [4, 10] is reported as 4 number of panelists. The “Ranking (number of panelists): ranking 4” value [4, 10] was 1 number of panelists, the “Avg. Ranking (odor)” value [4, 11] was 1.3 and the “Ranking (number of panelists): ranking 1” value [4, 11] was 5 number of panelists. For the same compound, the “Ranking (number of panelists): ranking 3” value [4, 11] was 1 number of panelists, the “Urine Odor Ranking (number of panelists): ranking 1” value [2, 8] was 1 number of panelists and the “Urine Odor Ranking … ranking 3” value [2, 8] was 1 number of panelists. For the same compound, the “Urine Odor Ranking … ranking 4” value [2, 8] was 1 number of panelists, the “Urine Odor Ranking (number of panelists): ranking 5” value [2, 8] was 1 number of panelists and the “Urine Odor Ranking (number of panelists): ranking 6” value [2, 8] was 1 number of panelists. The “Average Urine Odor Ranking, Avg. Score” value ([2]; Second Grouping) was 1.8, the “Urine Odor Ranking (number of panelists): ranking 1” value [2, 12] was 3 number of panelists and the “Urine Odor Ranking … ranking 3” value [2, 12] was 2 number of panelists. The “urine odor reduction (panel)” value ([2]; after 24 hours, top performers of both groupings) was “achieved the best odor reduction”, the “Average Urine Odor Ranking, Avg. Score” value [2, 9] was 3.8 and the “Average Urine Odor Ranking (with statistical corrections), Avg. Score” value ([2]; after 24 hours, top performers) was 3.8. The “Urine Odor Ranking (number of panelists): ranking 1” value [5, 13] was 1 number of panelists, the “Urine Odor Ranking … ranking 3” value [5, 13] was 1 number of panelists and the “Urine Odor Ranking … ranking 4” value [5, 13] was 2 number of panelists. The “Average Urine Odor Ranking, Avg. Score” value ([5]; 1st set (tissue-wrap coating), final pooled assessment) was 3.00, the “urine odor reduction (panel), assessment within set” value ([5]; first set of pads (dye-coated tissue wrap around pledgette), overnight 37° C.) was “performed best for the first set of pads” and the “overall urine odor control performance (panel)” value ([5]; tissue-wrap coating, final pooled assessment) was “performed very well”.
